The structures appear in SMILES notation.

The target of the assay is T1, human Kv72+3 channels (Homo sapiens, UniProt O43525+O43526).
T1 construct: expressed in transfected cells; host or cells: HEK293
Nature of the assay: patch-clamp, HEK293 cell lines stably expressing human Kv7.2+3 channels. The note with it: conc. 0.03 μM, −30 mV, 20 ms; current relative to baseline current defined as 100%. The assay is classed as cell-based. The text has this: The effect obtained by these channel activators is described as a percentage increase in baseline current at a given concentration. The baseline current is defined as 100%, and an increase in current is expressed relative to this, i.e. an increase from 1 nA to 1.2 nA is reported as 120%.
Take `CN(C)c1nc(NCc2ccc(F)cc2)ccc1NC(=O)Cc1ccc(F)c(F)c1` [Compound 1, N-[2-Dimethylamino-6-(4-fluoro-benzylamino)-pyridin-3-yl]-2-(3,4-difluoro-phenyl)-acetamide]: the “IK (%)” value came to 215%.
Turning to `CN(C)c1nc(NCc2ccc(F)cc2)ccc1NC(=O)Cc1ccc(C(F)(F)F)c(F)c1` [Compound 3, N-[2-Dimethylamino-6-(4-fluoro-benzylamino)-pyridin-3-yl]-2-(3-fluoro-4-trifluoromethyl-phenyl)-acetamide], the “IK (%)” value is recorded as 162%.
The figure for `CN(C)c1nc(NCc2ccc(F)cc2)ccc1NC(=O)CCc1cccc(F)c1` [Compound 5, N-[2-Dimethylamino-6-(4-fluoro-benzylamino)-pyridin-3-yl]-3-(3-fluoro-phenyl)-propionamide] is 174%; for `CN(C)c1nc(NCc2ccc(F)cc2)ccc1NC(=O)CC(C)(C)C` [Compound 8, N-[2-Dimethylamino-6-(4-fluoro-benzylamino)-pyridin-3-yl]-3,3-dimethyl-butyramide] it is 233%.

The record behind these values is patent publication US20110003866A1, “NOVEL 2-DIMETHYLAMINO-3-AMIDO-6-AMINO-PYRIDINE DERIVATIVES USEFUL AS POTASSIUM CHANNEL ACTIVATORS” (priority 2007, published 2011).
